The source made the active and inactive calls.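 How the source made its calls: active means compounds giving half or more protection of infected cells from virus-caused growth loss, again on retest; inactive means the rest.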 Where a SMILES comes first, the peptide text is derived from it.
Test system: CEM cells HIV-1 protection, formazan growth assay
Test: NCI AIDS Antiviral Assay
Conditions: for IC50: measured here: growth of uninfected CEM cells
Method in brief: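 Protection of CEM cells against HIV-1 was scored from cell growth (soluble formazan) across five concentrations, with parallel uninfected cells. Lack of protection may reflect toxicity.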

## CN(C)c1ccc(C(=C(c2ccc(N(C)C)cc2)c2ccc(N(C)C)cc2)c2ccc(N(C)C)cc2)cc1
  EC50: > 24.5 µM
  IC50: 1 µM

## N#Cc1[nH]c(=O)n(-c2ccc(Cl)cc2)c1N
  EC50: > 200 µM
  IC50: > 200 µM

## COc1cc(OC)c(CSCC(NC(=O)OCC2c3ccccc3-c3ccccc32)C(=O)O)c(OC)c1 (stereo not given)
  EC50: > 200 µM
  IC50: 105 µM

## COC1OC(=O)c2ccccc21 (stereo not given)
  outcome: inactive

## O=C1ON=C2C3CC4CC12CC1(C3)C(=O)ON=C41
  EC50: > 200 µM
  IC50: > 200 µM

## CCCN(CCC)C(=S)N/N=C/c1ccccn1
  EC50: > 2 µM
  IC50: 0.0126 µM

## CCC1CC2CC3c4[nH]c5ccc(OC)cc5c4CCN(C2)C13 (stereo not given)
  outcome: inactive

## CC1(C)C2CCC3CC(CCC#N)CCC3C21C#N (stereo not given)
  EC50: > 200 µM
  IC50: 95.5 µM

## CCOP(=O)(OCC)/C(C#N)=C/c1ccc(Oc2ccccc2)cc1
  EC50: > 20.4 µM
  IC50: > 20.4 µM

## CN(C)C(=O)Sc1nnc(C(C)(C)C)o1
  EC50: > 200 µM
  IC50: > 100 µM

## Cc1csc(NC23CC4CC(CC(C4)C2)C3)[n+]1C(P(=O)([O-])O)P(=O)(O)O (stereo not given)
  EC50: > 200 µM
  IC50: > 200 µM

## Cn1c2ccccc2n2c3ccccc3c(=S)c(C#N)c12
  EC50: > 100 µM
  IC50: > 100 µM

## CCCCC/C(=N\c1nc[nH]c1C(N)=O)OCC
  EC50: > 200 µM
  IC50: > 200 µM

## O=C1NC(=S)N/C1=C\c1ccc(Br)s1
  EC50: > 200 µM
  IC50: 112 µM

## COc1ccc(NC(=O)/C(=C/c2ccc(N(CCC#N)CCC#N)cc2)NC(=O)c2cc([N+](=O)[O-])ccc2Cl)cc1
  EC50: > 23.4 µM
  IC50: > 23.4 µM

## O=S(=O)(O)C(O)C(O)S(=O)(=O)O (stereo not given)
  EC50: > 200 µM
  IC50: 79.4 µM

## CCCCCCCCCCCc1noc2c1C(=O)C(O)CC2 (stereo not given)
  outcome: inactive

## CCC1COc2nc(=O)c(C=NCCCN(C)C)c(N)n21 (stereo not given)
  EC50: > 302 µM
  IC50: > 302 µM

## CCCCCCNC(=O)/C(=C/c1ccc(OC)cc1)NC(=O)c1ccccc1
  EC50: > 200 µM
  IC50: 102 µM

## CC(=O)OC1C(OC(C)=O)[C@@]2(C)C(C(OC(C)=O)[C@@H]3C2C(C)C=C2OC(=O)[C@@](C)(O)[C@@]23C)[C@H]2C1[C@]1(C)C(C[C@@H]3O[C@@H]3C1OC(C)=O)C(=O)[C@@H]2O (stereo not given in full)
  outcome: inactive

## CCS(=O)(=O)CCn1c(=O)c2c(ncn2C)n(C)c1=O
  EC50: > 200 µM
  IC50: > 200 µM

## COC(=O)/C=C(/CNC(=O)OCc1ccccc1)c1ccccc1
  outcome: inactive

## N#CC12Cc3ccc4c(c3-c3cccc(c31)CCN2C(=O)c1ccccc1)OCO4 (stereo not given)
  outcome: inactive

## CC(C(C(=O)O)S(=O)(=O)O)C(C(=O)O)S(=O)(=O)O (stereo not given)
  EC50: > 100 µM
  IC50: 20.4 µM

## C/C(O)=C(\C=NC(=S)c1cccnc1)C(=O)Nc1ccccc1C
  EC50: > 200 µM
  IC50: > 200 µM

## Cc1ccc(C(=O)OCC(C)C)cc1N=NN(C)C
  EC50: > 27.5 µM
  IC50: > 27.5 µM

## COc1cc(C2C(C(=O)NCc3ccccc3)=C(C)NC(C)=C2C(=O)NCc2ccccc2)ccc1O
  EC50: > 72.4 µM
  IC50: 49 µM

## CSc1nc2c(c(=O)[nH]1)N=C(c1ccccc1)CC(c1ccccc1)N2 (stereo not given)
  outcome: inactive

## O=C(/C=C/c1cccs1)c1ccc(C(=O)/C=C/c2cccs2)cc1
  EC50: > 200 µM
  IC50: 45.7 µM

## C#CC(C)(C)Oc1ccc2c(=O)c(-c3ccc(OC)cc3)coc2c1
  EC50: > 200 µM
  IC50: 20 µM

## ClC(Cl)=CC(Cl)(Cl)C(Cl)(Cl)C(Cl)(Cl)Cl
  EC50: > 200 µM
  IC50: 5.5 µM

## CCC1c2ccc3cc(OC)ccc3c2CCC1(C)C(=O)O (stereo not given)
  outcome: inactive

## CCOC(=O)/C(=C\c1ccc[nH]1)C(=O)c1ccccc1
  EC50: > 95.5 µM
  IC50: > 95.5 µM

## CC(C)CC(NC(=O)C(Cc1ccc(O)cc1)NC(=O)C(CO)NC(=O)C(C)NC(=O)C(CO)NC(=O)C(CCC(N)=O)NC(=O)C(NC(=O)C(N)CCC(=O)O)C(C)C)C(=O)NC(CCCN=C(N)N)C(=O)NC(CCCCN)C(=O)O (stereo not given) (H-EVQSASYLRK-OH; configuration not given here)
  outcome: inactive

## CCOC(=O)/C(F)=C/c1ccc(C#N)cc1
  EC50: > 33.1 µM
  IC50: > 33.1 µM

## CN(N)c1cc(=O)[nH]c(=O)[nH]1
  EC50: > 200 µM
  IC50: > 200 µM

## COC(=O)NC(Cc1ccccc1)NC(=O)OC(C)(C)C (stereo not given)
  EC50: > 200 µM
  IC50: > 200 µM

## CSC1=NC(=O)CCN1C1OCC(OC(C)=O)C(OC(C)=O)C1OC(C)=O (stereo not given)
  EC50: > 200 µM
  IC50: 105 µM

## c1ccc(N2N=C3N(c4ccccc4)C2N3c2ccccc2)cc1
  EC50: > 200 µM
  IC50: 30.2 µM

## COC(=O)C1Cc2cc3c(cc2C1=O)CCCC3 (stereo not given)
  EC50: > 1000 µM
  IC50: 66.1 µM

## NC(N)=NS(=O)(=O)c1ccc(Nc2c3ccccc3nc3c(C(=O)Nc4ccc(S(N)(=O)=O)cc4)ccc(Cl)c23)cc1
  EC50: > 41.7 µM
  IC50: > 41.7 µM

## O=[N+]([O-])c1cccc(C2CC(c3ccccc3)=Nc3ccccc3S2)c1 (stereo not given)
  EC50: > 35.5 µM
  IC50: 2.34 µM

## Cc1cc2c(C)nn(Cc3ccccc3)c2c(C(N)=O)c1C
  outcome: inactive

## C=CCn1nnc2ccccc2c1=O
  EC50: > 692 µM
  IC50: > 692 µM

## Cc1ccc(S(=O)(=O)/C(C#N)=C/NC(=S)Nc2cc(Cl)ccc2Cl)cc1
  outcome: inactive

## CC1(C)OC2COC(=O)CC2O1 (stereo not given)
  EC50: > 200 µM
  IC50: > 200 µM

## CCCCCCCCCCCCOP(=O)(O)OP(=O)(O)OCC1OC(n2cc(C)c(=O)[nH]c2=O)CC1O (stereo not given)
  EC50: > 200 µM
  IC50: 102 µM

## NC(CCSS(=O)(=O)O)=NCC(c1ccccc1)c1ccccc1
  EC50: > 123 µM
  IC50: 20 µM

## CC(=O)Nc1cc2c(s1)CCC1CC(=O)NN=C21 (stereo not given)
  EC50: > 200 µM
  IC50: > 200 µM

## COc1ccc(SSc2ccc(OC)cc2C(=O)O)c(C(=O)O)c1
  EC50: > 200 µM
  IC50: > 200 µM

## CCCCCCCCCCCC(=O)OCC1OC(n2cc(F)c(=O)[nH]c2=O)C(NC(=O)OCc2ccccc2)C(O)C1O (stereo not given)
  EC50: > 30.9 µM
  IC50: > 30.9 µM

## O=C(NCCO)c1c(CNC2CCCCC2)n([O-])c2ccccc2[n+]1=O
  EC50: > 501 µM
  IC50: > 501 µM

## CC(C)OP(=O)(OC(C)C)C(=NCCN=C(NNc1ccccc1[N+](=O)[O-])P(=O)(OC(C)C)OC(C)C)NNc1ccccc1[N+](=O)[O-]
  EC50: > 13.8 µM
  IC50: > 13.8 µM

## Oc1ccc2c(c1)CC[N+]1=C2CCC2CCCC21 (stereo not given)
  EC50: > 209 µM
  IC50: > 209 µM

## O=c1cc(CCl)nc2c3ncn(C4OC(CO)C(O)C4O)c3ncn12 (stereo not given)
  outcome: inactive

## CSc1nc2c(N)ncnc2n1C
  EC50: > 200 µM
  IC50: > 200 µM

## O=c1[nH]c2ccccc2c(O)c1N=Nc1cccc(C(F)(F)F)c1
  EC50: > 200 µM
  IC50: > 200 µM

## O=C1Nc2ccc(Cl)c(I)c2C1=O
  EC50: > 61.7 µM
  IC50: 35.5 µM

## CSc1sc2ccccc2[s+]1
  outcome: inactive

## O=[N+]([O-])C(Cl)=C/C(=C(\Cl)SCc1ccccc1)[N+](=O)[O-]
  EC50: > 200 µM
  IC50: 12 µM

## O=C(Nn1c(-c2ccccc2)nc2ccccc2c1=O)c1cccc([N+](=O)[O-])c1
  EC50: > 200 µM
  IC50: 166 µM

## C=C(CCCCCCCCC)CC(=O)SCCNC(=O)CCNC(=O)C(O)C(C)(C)COP(=O)(O)OP(=O)(O)OCC1OC(n2cnc3c(N)ncnc32)C(O)C1OP(=O)(O)O (stereo not given)
  EC50: > 200 µM
  IC50: 72.4 µM

## Cc1cc(C)c(NS(=O)c2cccc(C(F)(F)F)c2)c(C)c1 (stereo not given)
  EC50: > 110 µM
  IC50: > 110 µM

## CCOC(=O)C(NC(=O)c1ccccc1)(Nc1ccc(S(=O)(=O)Nc2nc(C)cc(C)n2)cc1)C(F)(F)F (stereo not given)
  EC50: > 200 µM
  IC50: > 200 µM

## C=C(Cc1ccc2c(c1)OCO2)C(=C)Cc1ccc(O)cc1O
  EC50: > 200 µM
  IC50: 55 µM

## CSC1=NN(C)C2(CCCCC2)C(=O)N1
  EC50: 13.8 µM
  IC50: 575 µM

## Cc1cc2c(c(C(=O)NCCC(=O)N[C@@H](C)C(=O)OCc3ccccc3)c1)Oc1c(cc(C)cc1C(=O)NCCC(=O)N[C@@H](C)C(=O)OCc1ccccc1)S2
  EC50: > 200 µM
  IC50: > 200 µM

## O=C(Nc1ccccn1)c1ccccc1[Se][Se]c1ccccc1C(=O)Nc1ccccn1
  EC50: 3.55 µM
  IC50: 8.13 µM

## COc1cc2c3c(c1OC)C(=O)C=C3N(S(=O)(=O)c1ccc(C)cc1)CC2
  outcome: inactive

## O=S(=O)(O)c1ccc(Nc2ccnc3ccccc23)cc1
  EC50: > 200 µM
  IC50: > 200 µM

## CN1CCCC1CCNc1nc(C(Cl)(Cl)Cl)nc2cc(Cl)ccc12 (stereo not given)
  EC50: > 24.5 µM
  IC50: 12.9 µM

## CS(=O)(=O)c1ccc(N=C/C=C/Nc2ccc(S(C)(=O)=O)cc2)cc1
  EC50: > 200 µM
  IC50: > 200 µM

## COc1ccc2c(c1)CC1Cc3cc(OC)c(OC)cc3CN1CC2 (stereo not given)
  EC50: > 200 µM
  IC50: 23.4 µM

## O=C1C=CC(=O)N1n1c(Cc2ccccc2)n[nH]c1=O
  EC50: > 200 µM
  IC50: > 200 µM

## NC1=NN(c2ccccc2)C(=O)C1/C(=N\NC(=O)c1cc2ccccc2cc1O)C(=O)Nc1ccc(Cl)c(Cl)c1 (stereo not given)
  EC50: > 45.7 µM
  IC50: > 45.7 µM

## Nc1nc(=S)[nH]c2n[nH]nc12
  EC50: > 200 µM
  IC50: > 200 µM

## CC(C)OC(=O)c1ccc(NCC2=CC(=O)C=CC2=O)cc1Cl
  EC50: > 200 µM
  IC50: 9.33 µM

## NC(CCOCCP(=O)(O)O)C(=O)O (stereo not given)
  EC50: > 200 µM
  IC50: > 200 µM

## O=C1c2c(F)c(F)c(F)c(F)c2SC2=NCCN12
  EC50: > 20 µM
  IC50: 2 µM

## COc1ccc(C(=O)/C=C/c2ccc(OCCCOc3ccc(/C=C/C(=O)c4ccc(OC)c(OC)c4)cc3)cc2)cc1OC
  EC50: > 200 µM
  IC50: > 200 µM

## COc1ccc2c3ccc4c(c3n(C)c2c1)C(=O)c1ccccc1C4=O
  EC50: > 1.51 µM
  IC50: > 1.51 µM

## CC(=O)O[C@H]1CCC2[C@@H]3CCC4C(=O)c5[nH]ncc5C[C@]4(C)C3CC[C@@]21C (stereo not given in full)
  EC50: > 87.1 µM
  IC50: > 87.1 µM

## CCOC(OC(C)=O)[C@@H]1C=C[C@H](C)N(c2ccc([N+](=O)[O-])cc2)O1 (stereo not given in full)
  EC50: > 40.7 µM
  IC50: 2.24 µM

## O=c1n(CCO)nc2n1CCCN2
  EC50: > 200 µM
  IC50: > 200 µM

## COC1=NS(=O)(=O)C(C)C(C)(C)O1 (stereo not given)
  EC50: > 427 µM
  IC50: > 427 µM

## C#Cc1ccccc1N1C(=O)C=CC1=O
  EC50: > 251 µM
  IC50: > 251 µM

## Cc1ccc(S(=O)(=O)/C(C#N)=C/NS(=S)c2ccncc2)cc1 (stereo not given)
  outcome: inactive

## Oc1ccc2c(c1)-c1c(c3cc(O)ccc3n1CCN1CCOCC1)CC2
  outcome: inactive

From PubChem BioAssay AID179 (DTP/NCI, 2004)
